According to US11685720B2, “Salt forms of URAT-1 inhibitors” (INVENTISBIO CO., LTD., priority 2018, dated 2023):
Converted amounts (≈) assume the structure as drawn.

Experiments:
Assay type in all cases: physicochemical
[1] = Dynamic moisture sorption (DVS); details: at 80% RH
Method: DYNAMIC MOISTURE SORPTION: Dynamic moisture adsorption and desorption were studied using IGA sorp (Hiden Isochema Ltd. Warrington, UK). About 3-5 mg of prepared sample was placed in a sample basket and hung in the measuring chamber of an IGA Sorp. For an isotherm test, the chamber temperature is maintained by a water bath at constant 25±1° C. The sample was tested at a targeted RH of 10 to 90% full cycle in step mode. The analysis was performed in 10% RH increments. Time duration at each RH was set as min.30 minutes to max. 120 min, so that the sample could reach equilibrium with the chamber environment. Data was collected in 3 minutes increment.

[2] = Solubility test by visual observation; details: thermodynamic from solid; for solubility: both water and pH 6.8 buffer; for solubility at 0.5 h: visual observation
Method: The solubilities of 1-Na and 1-K salts were very high, so the solubility was determined by visual observation. Weighed about 5 mg of sample solid (1-Na or 1-K salt) into a 2 mL of vial, and then added 5 uL of pH 6.8 buffer solution or water each time until the solids was dissolved.
(§1) The solubilities of the three salts and the Compound 1 were studied in pH 6.8 buffer and water, and the data was summarized in Table 5.

[3] = Solubility test, suspension filtered and filtrate analyzed by HPLC; details: thermodynamic from solid, 25° C.
Method: The suspension was centrifuged under 200 rpm at 25° C., and 0.3 mL to 0.5 mL of […]. At each time point, the suspension was filtered to remove solid, and the filtrate was analyzed by HPLC.
as §1

## N#Cc1ccc(-c2cnccc2SCC2(CC(=O)[O-])CC2)cc1.[Na+] [1-Na salt, sodium 2-(1-(((3-(4-cyanophenyl)pyridin-4-yl)thio)methyl)cyclopropyl)acetate]
[1]
  Water adsorbed (hygroscopicity): 8.28%
[2]; aqueous buffer
  solubility: > 400000 µg/mL
[2]; aqueous buffer, pH 6.8 buffer
  solubility at 0.5 h: > 400000 µg/mL
[2]; water
  solubility at 0.5 h: > 400000 µg/mL

## N#Cc1ccc(-c2cnccc2SCC2(CC(=O)O)CC2)cc1 [Compound 1, 2-(1-(((3-(4-cyanophenyl)pyridin-4-yl)thio)methyl)cyclopropyl)acetic acid]
[3]; aqueous buffer, pH 6.8 buffer
  solubility at 0.5 h: 83 µg/mL (≈ 256 µM)
  solubility at 2 h: 84 µg/mL (≈ 259 µM)
[3]; water
  solubility at 0.5 h: 19 µg/mL (≈ 58.6 µM)
  solubility at 2 h: 34 µg/mL (≈ 105 µM)

## N#Cc1ccc(-c2cnccc2SCC2(CC(=O)[O-])CC2)cc1.[K+] [1-K salt, potassium 2-(1-(((3-(4-cyanophenyl)pyridin-4-yl)thio)methyl)cyclopropyl)acetate]
[1]
  Water adsorbed (hygroscopicity): 50.63%
[2]; aqueous buffer
  solubility: > 400000 µg/mL
[2]; aqueous buffer, pH 6.8 buffer
  solubility at 0.5 h: > 400000 µg/mL
[2]; water
  solubility at 0.5 h: > 400000 µg/mL
